Like-named read-outs stand apart in the source and are kept apart here.
Experiments:
[1] = molecular target: PI3 kinase alpha (Homo sapiens, UniProt P42336); assay: PI3K ATP depletion assay (Biological Method 1, Assay 3; KinaseGlo luminescence); assay type: biochemical; conditions: ATP depletion assay, read-out: PI3 Kinase Alpha, IC50
Summary of the method: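 Compound in DMSO was mixed with 10 nM PI3 kinase and 5 μg/mL phosphatidylinositol, and the reaction was started with 2 μM ATP. It ran to about 50% ATP depletion and was stopped with KinaseGlo.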

[2] = system: A2780 ovarian cancer cells; assay: Cellular proliferation in A2780 cells, Cell Titer Glo (Biological Method 4); assay type: cell-based; conditions: Homo sapiens
Summary of the method: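 A2780 cells seeded at 1,000/well in DMEM with 10% FBS, at least 2 h before compound, then exposed 72 h at 37 °C, 5% CO2. Viable cells measured by Cell Titer Glo luminescence; EC50 calculated from duplicate conditions.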

[3] = ovarian cancer cell line A2780, Biological Method 4

Chain of PI3 kinase alpha (P42336 whole entry): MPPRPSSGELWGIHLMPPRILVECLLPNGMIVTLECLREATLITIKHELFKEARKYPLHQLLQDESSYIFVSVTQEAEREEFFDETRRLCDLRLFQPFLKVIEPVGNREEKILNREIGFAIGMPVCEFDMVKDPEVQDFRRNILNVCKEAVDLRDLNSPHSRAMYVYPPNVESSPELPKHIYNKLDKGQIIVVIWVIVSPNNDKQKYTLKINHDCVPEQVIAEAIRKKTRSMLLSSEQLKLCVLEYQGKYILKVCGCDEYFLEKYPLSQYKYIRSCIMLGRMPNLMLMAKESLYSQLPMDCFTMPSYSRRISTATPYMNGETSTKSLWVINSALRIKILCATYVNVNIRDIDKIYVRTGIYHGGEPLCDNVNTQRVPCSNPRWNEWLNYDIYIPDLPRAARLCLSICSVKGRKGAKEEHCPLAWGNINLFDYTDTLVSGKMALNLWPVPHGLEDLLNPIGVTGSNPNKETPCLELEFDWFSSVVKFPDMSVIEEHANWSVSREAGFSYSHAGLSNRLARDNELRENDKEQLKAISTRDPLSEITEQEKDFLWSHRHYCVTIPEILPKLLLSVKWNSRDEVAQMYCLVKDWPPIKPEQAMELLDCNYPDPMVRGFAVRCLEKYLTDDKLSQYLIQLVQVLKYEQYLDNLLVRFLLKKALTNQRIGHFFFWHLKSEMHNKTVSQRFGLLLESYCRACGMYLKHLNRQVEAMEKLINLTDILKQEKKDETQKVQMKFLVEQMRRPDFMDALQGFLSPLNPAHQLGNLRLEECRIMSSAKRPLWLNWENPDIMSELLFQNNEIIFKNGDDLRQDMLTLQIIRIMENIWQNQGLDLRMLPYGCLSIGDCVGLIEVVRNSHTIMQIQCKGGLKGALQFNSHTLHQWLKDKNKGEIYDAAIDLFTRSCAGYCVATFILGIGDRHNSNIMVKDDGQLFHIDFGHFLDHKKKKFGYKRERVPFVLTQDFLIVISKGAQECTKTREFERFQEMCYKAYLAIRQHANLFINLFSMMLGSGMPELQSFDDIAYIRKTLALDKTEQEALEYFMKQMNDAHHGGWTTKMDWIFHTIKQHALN
Chain of PI3 kinase alpha (P27986 whole entry partner): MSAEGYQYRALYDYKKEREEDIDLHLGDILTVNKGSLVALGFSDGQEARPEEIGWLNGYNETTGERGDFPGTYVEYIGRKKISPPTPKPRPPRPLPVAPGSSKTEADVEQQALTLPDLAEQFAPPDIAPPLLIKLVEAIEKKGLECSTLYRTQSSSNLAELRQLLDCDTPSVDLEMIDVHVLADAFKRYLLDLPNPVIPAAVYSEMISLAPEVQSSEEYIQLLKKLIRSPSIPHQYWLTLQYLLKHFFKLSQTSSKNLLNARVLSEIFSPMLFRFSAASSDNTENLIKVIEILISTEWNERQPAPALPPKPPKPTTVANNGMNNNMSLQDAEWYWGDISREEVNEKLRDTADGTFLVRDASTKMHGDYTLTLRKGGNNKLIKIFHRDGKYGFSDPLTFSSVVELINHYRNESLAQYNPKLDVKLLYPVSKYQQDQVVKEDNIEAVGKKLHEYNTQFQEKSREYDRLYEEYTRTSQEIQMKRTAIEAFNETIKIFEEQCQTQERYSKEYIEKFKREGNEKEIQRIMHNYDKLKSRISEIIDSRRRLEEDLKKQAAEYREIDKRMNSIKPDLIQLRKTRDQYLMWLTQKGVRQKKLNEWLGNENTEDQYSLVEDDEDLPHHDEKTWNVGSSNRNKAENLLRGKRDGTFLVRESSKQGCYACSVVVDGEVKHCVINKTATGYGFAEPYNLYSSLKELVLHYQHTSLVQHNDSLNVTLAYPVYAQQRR

Row | SMILES | IC50 [1] [nM] | EC50 ([2]; ovarian cancer cell line A2780) [nM] | IC50 ([1]; Biological Method 1) [nM] | EC50 [2, 3] [nM]
1 | Cc1cc(Nc2cc(-c3cnc(N)[nH]c3=O)nc(N3CCOCC3)n2)ccn1 [Compound 451] | < 1000 | < 10000 |  | 
2 | Nc1ncc(-c2cc(N3CCCC3)nc(N3CCOCC3)n2)cn1 [Compound 399] | < 1000 | < 10000 |  | 
3 | Nc1ncc(-c2cc(O[C@@H]3CCCN(C(=O)OC4CCCC4)C3)nc(N3CCOCC3)n2)c(N)n1 [Compound 526] | < 1000 | < 10000 |  | 
4 | N#Cc1cccc(Nc2cc(-c3cnc(N)nc3)nc(N3CCOCC3)n2)c1 [Compound 307] |  |  | < 1000 | < 10000
5 | CNC(=O)c1cc(-c2cnc(N)nc2)nc(N2CCOCC2)n1 [Compound 232] |  |  | < 1000 | < 25000
6 | N#Cc1ccc(Nc2cc(-c3cnc(N)cc3C(F)(F)F)nc(N3CCOCC3)n2)cn1 [Compound 284] |  |  | < 1000 | < 10000
7 | Nc1ccc(-c2cc(Nc3ccc4c(c3)OCC(=O)N4)nc(N3CCOCC3)n2)cn1 [Compound 384] |  |  | < 1000 | < 10000
8 | CC(C)(C)OC(=O)N1CCC[C@H](Oc2cc(-c3cnc(N)cc3C(F)(F)F)nc(N3CCOCC3)n2)C1 [Compound 20] | < 1000 | < 1000 |  | 
9 | Nc1ccc(-c2cc(Nc3cccnc3)nc(N3CCOCC3)n2)cn1 [Compound 378] |  |  | < 1000 | < 10000
10 | Nc1ncc(-c2cc(Nc3ccnc4ccc(C(F)(F)F)cc34)nc(N3CCOCC3)n2)cn1 [Compound 410] | < 1000 | < 10000 |  | 
11 | Cc1c(Nc2ccc3c(c2)OCCO3)nc(N2CCOCC2)nc1-c1cnc(N)nc1 [Compound 481] | < 1000 | < 1000 |  | 
12 | CC(C)(C)Nc1cc(-c2cnc(N)nc2)nc(N2CCOCC2)n1 [Compound 16] | < 1000 | < 1000 |  | 
13 | Nc1ncc(-c2cc(Nc3cnc4ccc(OC(F)(F)F)cc4c3)nc(N3CCOCC3)n2)cn1 [Compound 495] | < 1000 | < 25000 |  | 
14 | COc1ccc(Nc2cc(-c3ccc(N)nc3)nc(N3CCOCC3)n2)cc1 [Compound 442] | < 1000 | < 10000 |  | 
15 | Nc1cc(C(F)(F)F)c(-c2cc(Nc3ccncc3)nc(N3CCOCC3)n2)cn1 [Compound 447] | < 1000 | < 25000 |  | 
16 | CN(C)c1cc(-c2cnc(N)nc2)nc(N2CCOCC2)n1 [Compound 400] | < 1000 | < 10000 |  | 
17 | Nc1ccc(-c2cc(Nc3ccc(F)cc3)nc(N3CCOCC3)n2)cn1 [Compound 305] |  |  | < 1000 | < 10000
18 | Nc1ccc(-c2cc(N3CCOC(c4ccccc4)C3)nc(N3CCOCC3)n2)cn1 (stereo not drawn) [Compound 371] |  |  | < 1000 | < 10000
19 | COc1ccccc1Nc1cc(-c2cnc(N)nc2)nc(N2CCOCC2)n1 [Compound 306] |  |  | < 1000 | < 10000
20 | Nc1cc(C(F)(F)F)c(-c2cc(N3CCOC(c4ccc(Cl)cc4)C3)nc(N3CCOCC3)n2)cn1 (stereo not drawn) [Compound 336] |  |  | < 1000 | < 10000
21 | Nc1ncc(-c2cc(-c3cccnc3)nc(N3CCOCC3)n2)cn1 [Compound 518] | < 1000 | < 1000 |  | 
22 | Nc1ncc(-c2cc(Nc3ccc4c(c3)NC(=O)CO4)nc(N3CCOCC3)n2)cn1 [Compound 413] | < 1000 | < 10000 |  | 
23 | Nc1cc(C(F)(F)F)c(-c2cc(Nc3cccc(S(=O)(=O)CCO)c3)nc(N3CCOCC3)n2)cn1 [Compound 318] |  |  | < 1000 | < 10000
24 | Nc1cc(C(F)(F)F)c(-c2cc(O[C@H]3CCOC3)nc(N3CCOCC3)n2)cn1 [Compound 26] | < 1000 | < 10000 |  | 
25 | Nc1ccc(-c2cc(Nc3ccc(N4CCNCC4)nc3)nc(N3CCOCC3)n2)cn1 [Compound 299] |  |  | < 1000 | < 10000
26 | Nc1cc(C(F)(F)F)c(-c2cc(N3CCOC(c4ccc(F)cc4)C3)nc(N3CCOCC3)n2)cn1 (stereo not drawn) [Compound 335] |  |  | < 1000 | < 10000
27 | Nc1cc(C(F)(F)F)c(-c2cc(Nc3ccc(OC4CCOCC4)nc3)nc(N3CCOCC3)n2)cn1 [Compound 267] |  |  | < 1000 | < 10000

From patent publication US8217035B2, “Pyrimidine derivatives used as PI-3-kinase inhibitors” (Novartis AG, priority 2006, dated 2012)
